Measurements reported in paper PMC10257182, “Discovery of senolytics using machine learning” (Nature Communications, 2023).
Where two headings read alike, the source gives them in different places.

Experiments:
Type in all cases: cell-based, human
[1] = test system: senescent IMR90 ER:RAS cells (4-OHT-induced); experiment: Nuclei count (Hoechst, high content imaging) senolytic assay, oncogene-induced senescence (OIS) model, senescent cells; details: Homo sapiens
How it was run: (§1)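 IMR90 ER:RAS (p14), ±4-OHT 100 nM; cpd 10 nM–10 μM, 10-pt […], 72 h, n=3. Fix formaldehyde, Triton X-100, Hoechst 2 μg/ml final. Readout: imaged nuclei count vs untreated; ouabain positive control.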

[2] = test system: non-senescent control IMR90 ER:RAS cells; experiment: Nuclei count (Hoechst, high content imaging) senolytic assay, OIS model, non-senescent control cells; details: Homo sapiens
How it was run: as §1

[3] = test system: senescent A549 cells (etoposide-induced); experiment: Nuclei count senolytic assay, therapy-induced senescence (TIS) model, senescent cells; details: Homo sapiens, A549, Senescent cells, mean, read-out: Mean % Cell Survival
How it was run: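 Etoposide 100 μM, 48 h, + 3 d standard media → senescent A549; untreated A549 = controls. 24 h post-seeding, cpds 10 nM–10 μM final, 10-pt […], 72 h, n=3. Fix formaldehyde, permeabilise Triton-X100, Hoechst 2 μg/ml, image, count nuclei.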

## CO[C@H]1C[C@@H]2CC[C@@H](C)[C@@](O)(O2)C(=O)C(=O)N2CCCC[C@H]2C(=O)O[C@H]([C@H](C)C[C@@H]2CC[C@@H](OCCO)[C@H](OC)C2)CC(=O)[C@H](C)/C=C(\C)[C@@H](O)[C@@H](OC)C(=O)[C@H](C)C[C@H](C)/C=C/C=C/C=C/1C [Everolimus, everolimus, reference compound]
[1]; IMR-90, 72 h, Senescent, log (dose) [M] -5, 72 h, mean n=3 (Fig 3C), read-out: Mean % Cell Survival
  viability at 10 µM: 82.2%
[1]; IMR-90, 72 h, Senescent, log (dose) [M] -5.33, 72 h, mean n=3 (Fig 3C), read-out: Mean % Cell Survival
  viability at 4.677 µM: 80%
[1]; IMR-90, 72 h, Senescent, log (dose) [M] -5.66, 72 h, mean n=3 (Fig 3C), read-out: Mean % Cell Survival
  viability at 2.188 µM: 87.3%
[1]; IMR-90, 72 h, Senescent, log (dose) [M] -6, 72 h, mean n=3 (Fig 3C), read-out: Mean % Cell Survival
  viability at 1 µM: 92.8%
[1]; IMR-90, 72 h, Senescent, log (dose) [M] -6.33, 72 h, mean n=3 (Fig 3C), read-out: Mean % Cell Survival
  viability at 0.4677 µM: 92.3%
[1]; IMR-90, 72 h, Senescent, log (dose) [M] -6.66, 72 h, mean n=3 (Fig 3C), read-out: Mean % Cell Survival
  viability at 0.2188 µM: 92.6%
[1]; IMR-90, 72 h, Senescent, log (dose) [M] -7, 72 h, mean n=3 (Fig 3C), read-out: Mean % Cell Survival
  viability at 0.1 µM: 93.7%
[1]; IMR-90, 72 h, Senescent, log (dose) [M] -7.33, 72 h, mean n=3 (Fig 3C), read-out: Mean % Cell Survival
  viability at 0.04677 µM: 88.2%
[1]; IMR-90, 72 h, Senescent, log (dose) [M] -7.66, 72 h, mean n=3 (Fig 3C), read-out: Mean % Cell Survival
  viability at 0.02188 µM: 90.5%
[1]; IMR-90, 72 h, Senescent, log (dose) [M] -8, 72 h, mean n=3 (Fig 3C), read-out: Mean % Cell Survival
  viability at 0.01 µM: 93.7%
[1]; IMR-90, Senescent, log (dose) [M] -5, read-out: % Cell Survival
  viability at 10 µM: 67.8%
[1]; IMR-90, Senescent, log (dose) [M] -5.33, read-out: % Cell Survival
  viability at 4.677 µM: 92.4%
[1]; IMR-90, Senescent, log (dose) [M] -5.66, read-out: % Cell Survival
  viability at 2.188 µM: 80%
[1]; IMR-90, Senescent, log (dose) [M] -6.66, read-out: % Cell Survival
  viability at 0.2188 µM: 80.7%
[1]; IMR-90, Senescent, log (dose) [M] -7, read-out: % Cell Survival
  viability at 0.1 µM: 80.3%
[2]; IMR-90, 72 h, Control, log (dose) [M] -5, 72 h, mean n=3 (Fig 3C), read-out: Mean % Cell Survival
  viability at 10 µM: 107%
[2]; IMR-90, 72 h, Control, log (dose) [M] -5.33, 72 h, mean n=3 (Fig 3C), read-out: Mean % Cell Survival
  viability at 4.677 µM: 109%
[2]; IMR-90, 72 h, Control, log (dose) [M] -5.66, 72 h, mean n=3 (Fig 3C), read-out: Mean % Cell Survival
  viability at 2.188 µM: 107%
[2]; IMR-90, 72 h, Control, log (dose) [M] -6, 72 h, mean n=3 (Fig 3C), read-out: Mean % Cell Survival
  viability at 1 µM: 104%
[2]; IMR-90, 72 h, Control, log (dose) [M] -6.33, 72 h, mean n=3 (Fig 3C), read-out: Mean % Cell Survival
  viability at 0.4677 µM: 105%
[2]; IMR-90, 72 h, Control, log (dose) [M] -6.66, 72 h, mean n=3 (Fig 3C), read-out: Mean % Cell Survival
  viability at 0.2188 µM: 100%
[2]; IMR-90, 72 h, Control, log (dose) [M] -7, 72 h, mean n=3 (Fig 3C), read-out: Mean % Cell Survival
  viability at 0.1 µM: 109%
[2]; IMR-90, 72 h, Control, log (dose) [M] -7.33, 72 h, mean n=3 (Fig 3C), read-out: Mean % Cell Survival
  viability at 0.04677 µM: 105%
[2]; IMR-90, 72 h, Control, log (dose) [M] -7.66, 72 h, mean n=3 (Fig 3C), read-out: Mean % Cell Survival
  viability at 0.02188 µM: 102%
[2]; IMR-90, 72 h, Control, log (dose) [M] -8, 72 h, mean n=3 (Fig 3C), read-out: Mean % Cell Survival
  viability at 0.01 µM: 104%
[2]; IMR-90, Control, log (dose) [M] -5.33, read-out: % Cell Survival
  viability at 4.68 µM: 107%
[2]; IMR-90, Control, log (dose) [M] -5.66, read-out: % Cell Survival
  viability at 2.19 µM: 108%
[2]; IMR-90, Control, log (dose) [M] -6, read-out: % Cell Survival
  viability at 1 µM: 106%
[2]; IMR-90, Control, log (dose) [M] -6.33, read-out: % Cell Survival
  viability at 0.468 µM: 92.7%
[2]; IMR-90, Control, log (dose) [M] -6.66, read-out: % Cell Survival
  viability at 0.219 µM: 109%
[2]; IMR-90, Control, log (dose) [M] -7, read-out: % Cell Survival
  viability at 0.1 µM: 105%
[2]; IMR-90, Control, log (dose) [M] -7.33, read-out: % Cell Survival
  viability at 0.04677 µM: 116%
[2]; IMR-90, Control, log (dose) [M] -7.66, read-out: % Cell Survival
  viability at 0.0219 µM: 115%
[2]; IMR-90, Control, log (dose) [M] -8, read-out: % Cell Survival
  viability at 0.01 µM: 118%
[3]; log (dose) [M] -5
  viability at 10 µM: 71.7%
[3]; log (dose) [M] -5.33
  viability at 4.68 µM: 84.3%
[3]; log (dose) [M] -5.66
  viability at 2.19 µM: 79.6%
[3]; log (dose) [M] -6
  viability at 1 µM: 66.9%
[3]; log (dose) [M] -6.33
  viability at 0.468 µM: 72.1%
[3]; log (dose) [M] -6.66
  viability at 0.219 µM: 74.4%
[3]; log (dose) [M] -7
  viability at 0.1 µM: 76.2%
[3]; log (dose) [M] -7.33
  viability at 0.0468 µM: 85.6%
[3]; log (dose) [M] -7.66
  viability at 0.0219 µM: 95%
[3]; log (dose) [M] -8
  viability at 0.01 µM: 94.7%
